Assay results from patent US20240190904A1, “Heteroaryl compounds as inhibitors of RIP2 kinase, composition and application thereof” (Accro Bioscience (HK) Limited, priority 2021, published 2024).
Values after ≈ are worked out from the molar mass of the structure shown.

What was measured:
[1] = Protein binding test (dialysis), dog; assay type: in vitro ADME; settings: for fraction unbound at 5 h, 1 μM: dog plasma
Description: (§1) • 1. Spiking Solutions of Test and Reference Compounds • 1.1 Solution A (0.5 mM): Add 10 μL of 10 mM stock solution into 190 μL of DMSO. • 1.2 Solution B (0.02 mM): Add 8 μL of Solution A into 192 μL of 0.05 M sodium phosphate buffer. The final DMSO concentration in Solution B is 4%. • 2. Preparation of Test and Reference Compounds • 2.1 Preload a 96-well plate with 380 μL aliquots of plasma in the wells designated for plasma and buffer, respectively. • 2.2 Spike 20 μL of Solution B (0.02 mM of test and reference compounds) into the pre-loaded plasma in the 96-well plate. The final test concentration is 1 μM containing 0.2% DMSO. • 3. Dialysis Sample Loading • 3.1 Preparing plasma against buffer system (duplicate): Apply aliquots of 100 μL of blank dialysis buffer to the receiver side of dialysis chambers. Then apply aliquots of 100 μL of the plasma spiked with test and reference compounds to the donor side of the dialysis chambers. • 3.2 Preparing T0 plasma samples for initial concentrations (duplicate): • 3.2.1 Aliquot 25 μL of the plasma spiked with test and reference compounds into a 96-well sample preparation plate as T0 plasma samples • 3.2.2 Mix the aliquots with same volume of blank buffer (50:50, v/v). • 3.2.3 Quench the samples with 200 μL of acetonitrile containing internal standard (IS). • 3.3 Cover the dialysis block with a plastic lid and place the entire apparatus in a shaker (60 rpm) for 5 hours at 37° C. • 3.4 Preparing dialyzed samples after 5-hour incubation: • 3.4.1 Aliquot 25 μL from both the donor sides and receiver sides of the dialysis apparatus into new sample preparation plates and mix the aliquots with same volume of opposite matrixes (blank buffer to plasma and vice versa). • 3.4.2 Quench the samples with 200 μL acetonitrile containing internal standard (IS). Vortex all the samples (from 0 h and 5 h) at 600 rpm for 10 min followed by centrifugation at 5594 g for 15 minutes (ThermoMultifuge×3R). • 3.4.3 Transfer 50 μL of the supernatants to a new 96-well plate and mix the samples with 50 μL of Milli-Q water. Cover the sample plate and store it in a freezer (−20° C.) until LC/MS/MS analysis.

[2] = Protein binding test (dialysis), rat; assay type: in vitro ADME; settings: for fraction unbound at 5 h, 1 μM: rat plasma
Description: as §1

[3] = Metabolic stability test, DLM; assay type: in vitro ADME; settings: dog, liver microsomes; for CLint scaled at 1 μM: pH 7.4, read-out: Cl (mL/min/kg) DLM; for half-life at 1 μM: pH 7.4, read-out: T1/2 (min) DLM
Description: (§2) • 1. Buffers: • Buffer A: 1.0 L of 0.1 M monobasic Potassium Phosphate buffer containing 1.0 mM EDTA • Buffer B: 1.0 L of 0.1 M Dibasic Potassium Phosphate buffer containing 1.0 mM EDTA • Buffer C: 0.1 M Potassium Phosphate buffer, 1.0 mM EDTA, pH 7.4 by titrating 700 mL of buffer B with buffer A while monitoring with the pH meter. • 2. Reference compounds (Ketanserin) and test compounds spiking solution: • 500 μM spiking solution: add 10 μL of 10 mM DMSO stock solution into 190 μL ACN. • 1.5 μM spiking solution in microsomes (0.75 mg/mL): add 1.5 μL of 500 μM spiking solution and 18.75 μL of 20 mg/mL liver microsomes into 479.75 μL of Buffer C on ice. • 3. Prepare NADPH stock solution (6 mM) by dissolving NADPH into buffer C. • 4. Dispense 30 μL of 1.5 μM spiking solution containing 0.75 mg/mL microsomes solution to the assay plates designated for different time points (0-, 5-, 15-, 30-, 45-min) on ice. • 5. For 0-min time point, add 135 μL of ACN containing IS to the wells of 0-min plate and then add 15 μL of NADPH stock solution (6 mM). • 6. Pre-incubate all other plates at 37° C. for 5 minutes. • 7. Add 15 μL of NADPH stock solution (6 mM) to the plates to start the reaction and timing. • 8. At 5-min, 15-min, 30-min, and 45-min, add 135 μL of ACN containing IS to the wells of corresponding plates, respectively, to stop the reaction. • 9. After quenching, shake the plates at the vibrator (IKA, MTS 2/4) for 10 min (600 rpm/min) and then centrifuge at 5594 g for 15 min (ThermoMultifuge×3R). • 10. Transfer 50 μL of the supernatant from each well into a 96-well sample plate containing 50 μL of ultra pure water (Millipore, ZMQS50F01) for LC/MS analysis.

[4] = Thermodynamic solubility test; assay type: physicochemical; settings: thermodynamic from solid; FaSSIF pH 6.5, thermodynamic
Description: • a. Add assay buffer into compound powder to make 4 mg/mL solution. • b. Sample tubes are shaken for 1 hour (1000 rpm), then equilibrated over night at room temperature. • c. Samples are centrifuged (10 min-12000 rpm) to precipitate un-dissolved particles. • d. Supernatants are transferred to new tubes. • e. Concentrations of the supernatants after centrifugation are determined by LCMSMS detection.

[5] = test system: IL-8 in THP-1 induced by MDP; assay: THP-1 cell assay, IL-8 ELISA after MDP; assay type: cell-based; settings: Homo sapiens; test compounds 10 nM; THP-1, MDP induced
Description: Acute monoblastic and monocytic leukemia (THP-1) was obtained from ATCC (item NO. TIB-202™). The temperature of the sterile incubator is 37˜38° C., the osmotic pressure is 260˜320 mmol/L, the pH range is 7.2˜7.4, and the ratio of carbon dioxide gas is 5%.
Cells were seeded in 96-well plates. After an hour, cells were incubated with test compounds for 2 hours. MDP (10 μL) was added and incubated for 6 hours. The samples were centrifuged (3000 rmp/min) for 5 minutes. The concentration of IL-8 in the supernatants was detected by IL-8 ELISA.

[6] = Protein binding test (dialysis), human; assay type: in vitro ADME; settings: for fraction unbound at 5 h, 1 μM: human plasma
Description: as §1

[7] = Metabolic stability test, RLM; assay type: in vitro ADME; settings: rat, liver microsomes; for CLint scaled at 1 μM: pH 7.4, read-out: Cl (mL/min/kg) RLM; for half-life at 1 μM: pH 7.4, read-out: T1/2 (min) RLM
Description: as §2

| SMILES | fraction unbound at 5 h, 1 μM [1] | fraction unbound at 5 h, 1 μM [2] | CLint scaled at 1 μM [3] [mL/min/kg] | half-life at 1 μM [3] [min] | solubility [4] [mM] | fraction unbound at 5 h, 1 μM [6] | CLint scaled at 1 μM [7] [mL/min/kg] | half-life at 1 μM [7] [min] | protein binding in dog (in words) ([1]; dog) | protein binding in rat (in words) ([2]; rat) | protein binding in human (in words) ([6]; human) | inhibition at 0.01 µM [5] [%] |
| --- | --- | --- | --- | --- | --- | --- | --- | --- | --- | --- | --- | --- |
| COc1cc2nccc(Nc3ccc4scnc4c3)c2cc1P(C)(C)=O [A6] | 0.138 | 0.019 | 5.21 | 664 | 6.12 (≈ 2340 µg/mL) | 0.124 | 25.9 | 95.7 | – | – | – | 50 |
| CP(C)(=O)c1cc2c(Nc3ccc4scnc4c3)ccnc2cc1OCCO [A7, (4-(benzo[d]thiazol-5-ylamino)-7-(2-hydroxyethoxy)quinolin-6-yl)dimethylphosphine oxide] | – | – | 2.58 | 1340 | 5.31 (≈ 2200 µg/mL) | – | 17 | 146 | – | – | – | 25 |
| COCCOc1cc2nccc(Nc3ccc4scnc4c3)c2cc1P(C)(C)=O [A8] | – | – | 13.7 | 253 | 1.04 (≈ 444 µg/mL) | – | 25.9 | 95.7 | – | – | – | 51 |

Continued, in another order:

| fraction unbound at 5 h, 1 μM [1] | fraction unbound at 5 h, 1 μM [2] | CLint scaled at 1 μM [3] [mL/min/kg] | half-life at 1 μM [3] [min] | solubility [4] [mM] | fraction unbound at 5 h, 1 μM [6] | CLint scaled at 1 μM [7] [mL/min/kg] | half-life at 1 μM [7] [min] | protein binding in dog (in words) ([1]; dog) | protein binding in rat (in words) ([2]; rat) | protein binding in human (in words) ([6]; human) | SMILES | inhibition at 0.01 µM [5] [%] |
| --- | --- | --- | --- | --- | --- | --- | --- | --- | --- | --- | --- | --- |
| – | – | 30.1 | 115 | 0.283 (≈ 128 µg/mL) | – | 63.9 | 38.9 | – | – | – | CC1(COc2cc3nccc(Nc4ccc5scnc5c4)c3cc2P(C)(C)=O)COC1 [A9] | 55 |
| 0.165 | 0.073 | 5.58 | 619 | – | 0.177 | 38.6 | 64.4 | – | – | – | CP(C)(=O)c1cc2c(Nc3ccc4scnc4c3)ccnc2cc1O[C@H]1CCOC1 [A14] | – |
| 0.129 | 0.059 | 4.16 | 831 | – | 0.188 | 49.5 | 50.2 | – | – | – | CP(C)(=O)c1cc2c(Nc3ccc4scnc4c3)ccnc2cc1O[C@@H]1CCOC1 [A15] | – |
| 0.145 | 0.069 | – | – | – | 0.195 | 16.9 | 147 | – | – | – | CP(C)(=O)c1cc2c(Nc3ccc4scnc4c3)ccnc2cc1OC1COC1 [A16] | – |
| 0.01 | 0.001 | – | – | – | 0.013 | – | – | high protein binding | high protein binding | high protein binding | CP(C)(=O)c1cc2c(Nc3ccc4scnc4c3)ccnc2cc1OC(F)(F)F [A24] | – |
